{"source": "patent US20030144335A1", "about": "“Preventive or remedial agent for allergic disease and medical water-based liquid preparation, eye drop, and nasal drop” (priority 2001, published 2003)", "system": "experimental allergic conjunctivitis model", "assay": "Experimental allergic conjunctivitis model (dye leakage in palpebral conjunctiva of passively sensitized guinea pigs)", "assay_type": "in vivo, guinea pig", "conditions": "at each concentration (0.01%, 0.1%, 1%); dose relationship confirmed", "experimental": "In the test, Hartley male guinea pigs (each group consisting of 8 guinea pigs) at age 6 weeks were used.\nAntiserum made by the following method was used: According to the method of Levine et al (J.Immunol.,106,29-33(1971)), the guinea pigs were sensitized with 4 times-administration of physiological saline 1 ml containing 10 μg of ovalbumin (hereafter called “OA”) and 5 mg of aluminum hydroxide via the peritoneal cavity at intervals of 2 weeks. 1 week after the final sensitization, blood was sampled from the hind leg, and left at room temperature for 30 minutes. The blood was then left at 4° C. for 4-5 hours, and serum was then collected by centrifugation at 1680×9.8 m/s^2 g for 15 minutes. The serum obtained was frozen and stored at −80° C.\n20 μl/site of Anti OA guinea pig serum (64 antibody titer in PCA (passive cutaneous anaphylaxis reaction)) was diluted with an equal amount of physiological saline. 20 μl/site of the solution was injected intradermally in binocular palpebral conjunctiva of the guinea pig under ether anesthesia. Thus, passive sensitization was carried out. […]\nThen, 8 ml of 0.6 mol/ml of liquid mixture of phosphoric acid and acetone(5 to 13) was added and shaken; thereafter, the mixture was stirred using a homogenizer, and centrifuged at 1680×9.8/s^2 for 15 minutes. The leakage pigment quantity was colorimetered at 620 nm using a spectrophotometer. […]"}
{"smiles": "CCS(=O)(=O)CCn1c([N+](=O)[O-])cnc1C", "note": "[tinidazole, 1-(2-ethylsulfonyl)ethyl-2-methyl-5-nitro-1H-imidazole]", "values": [{"measurement": "inhibitory effect on dye leakage (allergic conjunctivitis)", "result": "significant inhibitory effect"}]}
